Reference: US8759098B2, “Method for cloning pluripotent stem cells” (Boston Biomedical Research Institute, Inc., priority 2009, dated 2014)

Assays:
Format in all cases: cell-based, mouse
[1] = tested on: reprogramming genes (Oct4, Sox2, Klf4, Myc, Lin28) in Panstra-11-Xn Non-responsive; test: Micro-array expression of reprogramming gene mRNAs, Panstra-11
From the text: (§1) Table 2. Micro-array expression levels for described iPSC reprogramming gene mRNAs in SACK-derived mouse pancreatic stem cell strains. […] Panstra-11 is a non-responsive strain.
(§2) All the described induced pluripotent stem cell (iPSC) reprogramming genes are detected in two cell strains derived with the suppression of asymmetric cell kinetics (SACK)-agent xanthine (Xn). The SACK strains were derived from pancreatic islets of adult xanthine phosphoribosyl transferase (XPRT)-transgenic mice. The derivation of such strains requires both the XPRT-transgenic genotype and Xn.

Panstra 56 [2] = test: Gene-free iPSC reprogramming, Panstra 56; details: Panstra 56, SACK agent Xn
Method: (§3) Each tested SACK-derived cell strain was cultured on STO cell feeder monolayers in control medium with 10% DFBS, dialyzed fetal bovine serum (DFBS) or either of two commercial media for culture of murine embryonic stem cells (ESCs) and for the culture of reprogrammed cells such as iPSCs. Each medium condition was evaluated with or without supplementation with 1 mM xanthine (Xn). P/S denotes routine use of the antibiotics penicillin and streptomycin.
(§4) The method is an original pharmacological procedure for producing pluripotent stem cells. Cell strains derived in xanthine (Xn)-supplemented medium, by the method of suppression of asymmetric cell kinetics (SACK), were cultured in commercial media specified for the culture and/or production of pluripotent stem cells such as embryonic stem cells and iPSCs. Approximately 150,000 cells were plated on confluent STO cell feeders (i.e., mouse embryonic fibroblasts pre-treated with mitomycin C) in 10-cm culture dishes. In 2 weeks, iPSC-like cell colonies were detected.
(§5) Tissue-specific stem cells (e.g., Panstra-25 and Panstra-12 mouse pancreatic stem cell strains in the instant example) were cultured on mitomycin C-treated STO cell monolayers in commercial embryonic stem cell medium supplemented with the purine salvage base xanthine at 1 mM concentration (FIG. 4). […]

Panstra 25 = test: SACK responsiveness (cell kinetics, colony formation), Panstra 25; parameters: key: SACK-responsive (R); non-responsive (NR); details: Panstra 25, SACK agent Xn
Method: Cells were plated at colony forming density in SACK-free culture medium (Control) or culture medium supplemented to 1 mM concentration with the SACK agents xanthosine (Xs), xanthine (Xn), or hypoxanthine (Hx).
(§6) The terms “SACK-R” and “Xn-responsive” are used interchangeably. Xn-responsive cells are not transformed cells.
(§7) In the example, the differentiated cells are adult mouse pancreatic islet cells and Xn is the chemical compound used to suppress asymmetric cell kinetics (SACK). […] These Xn-treated and Xn-responsive cells then proceeded to express alkaline phosphatase, a known enzyme marker that is highly expressed in undifferentiated cells such as primordial germ cells (FIG. 8), after culture in media that support the proliferation of mouse pluripotent stem cells. Under these conditions, these Xn-expanded and Xn-responsive cells also multiply to form colonies that take on a clonal mouse embryonic stem cell-like morphology in culture, resembling a compact clump of round tiny cells, the clump having a smooth and well defined edge (FIG. 7B).
The SACK-derived clonal pancreatic cell strains have properties of either beta-cell precursors (Pdx1+) or more primitive pancreatic cells (Pdx1−). In the colony formation analyses, three hundred (300) cells were plated in replicate (n=3) 30-mm diameter culture dishes. […] Ten days later, plates were stained with crystal violet and colonies counted. […]

Panstra 12 = test: SACK responsiveness (cell kinetics, colony formation), Panstra 12; parameters: key: SACK-responsive (R); non-responsive (NR); details: Panstra 12, SACK agent Xn
From the text: as §6, §7
(§8) The SACK-derived clonal pancreatic cell strains have properties of either beta-cell precursors (Pdx1+) or more primitive pancreatic cells (Pdx1−). In the colony formation analyses, three hundred (300) cells were plated in replicate (n=3) 30-mm diameter culture dishes. Twenty-four hours later, the culture medium was replaced with the medium supplemented with SACK agents as indicated. Ten days later, plates were stained with crystal violet and colonies counted. Xs, xanthosine; Xn, xanthine; Hx hypoxanthine.

Panstra 56 [3] = test: SACK responsiveness (cell kinetics, colony formation), Panstra 56; parameters: key: SACK-responsive (R); non-responsive (NR); details: Panstra 56, SACK agent Xn
From the text: as §6, §7, §8

Panstra 11 = test: Gene-free iPSC reprogramming, Panstra 11; details: Panstra 11, SACK agent Xn
Method: as §3, §4, §5

[4] = tested on: reprogramming genes (Oct4, Sox2, Klf4, Myc, Lin28) in Panstra-25 - Xn responsive; test: Micro-array expression of reprogramming gene mRNAs, Panstra-25
From the text: as §1, §2

[5] = tested on: SACK-responsive, Pdx1-positive Panstra-25 pancreatic stem cells; test: Gene-free iPSC reprogramming on STO feeders, colony phenotypes, Panstra-25; details: for Estimated gene-free iPSC colony formation efficiency, ES, AP+ (iPSC state) / Estimated gene-free iPSC colony formation efficiency, ES, AP− / Estimated gene-free iPSC colony formation efficiency, Fl, AP+ / Estimated gene-free iPSC colony formation efficiency, Fl, AP− / Phenotype ES, AP+ (iPSC state) of individual cell clones following expansion, clones/total / Phenotype ES, AP+ (iPSC state) of individual cell clones following expansion, percent / Phenotype ES, AP− of individual cell clones following expansion, clones/total / Phenotype ES, AP− of individual cell clones following expansion, percent / Phenotype Fl, AP+ of individual cell clones following expansion, clones/total / Phenotype Fl, AP+ of individual cell clones following expansion, percent / Phenotype Fl, AP− of individual cell clones following expansion, clones/total / Phenotype Fl, AP− of individual cell clones following expansion, percent: Panstra-25, 1 mM Xn
Method: as §3, §4
To establish clonal strains, single colonies were picked, cultured in individual wells, and expanded for further study and cryo-preservation. A high fraction of the derived cell clones have morphological and biochemical properties indicative of iPSC cells.
Tissue-specific stem cells (e.g., Panstra-25 and Panstra-12 mouse pancreatic stem cell strains in the instant example) were cultured on mitomycin C-treated STO cell monolayers in commercial embryonic stem cell medium supplemented with the purine salvage base xanthine at 1 mM concentration (FIG. 4). Within 2-3 weeks of culture under otherwise standard conditions, cell colonies with embryonic stem cell-like morphology developed (FIG. 7B). These colonies were removed by mild trypsin treatment, transferred to individual cell culture wells prepared with STO cell feeders, and expanded in the respective embryonic stem cell culture medium supplemented with 1 mM xanthine (FIG. 5). The expanded cell clones expressed alkaline phosphatase (FIG. 8), a biochemical biomarker for the pluripotent phenotype of embryonic stem cells and iPSC cells. […] Xn supplementation increased the average production efficiency by as much as 3-fold (Table 6).

O=c1[nH]c(=O)c2[nH]cnc2[nH]1 [Xn, xanthine]
Klf4 expression (gene micro-array data) [1]: 21.6 | Lin28 expression (gene micro-array data) [1]: 0.9 | Myc expression (gene micro-array data) [1]: 19.6 | Oct4 expression (gene micro-array data) [1]: 2.6 | Sox2 expression (gene micro-array data) [1]: 0.1 | iPSC (gene-free iPSC reprogramming) (Panstra 56 [2]): No | SACK Type (Panstra 25): R | SACK Type (Panstra 12): R | SACK Type (Panstra 56 [3]): NR | iPSC (gene-free iPSC reprogramming) (Panstra 11): No | Klf4 expression (gene micro-array data) ([4]; Panstra-25, Xn): 31.8 | Lin28 expression (gene micro-array data) ([4]; Panstra-25, Xn): 1.0 | Myc expression (gene micro-array data) ([4]; Panstra-25, Xn): 35.5 | Oct4 expression (gene micro-array data) ([4]; Panstra-25, Xn): 2.3 | Sox2 expression (gene micro-array data) ([4]; Panstra-25, Xn): 0.2 | Klf4 and Myc mRNA expression in response to culture in Xn ([4]; SACK-derived strains, Table 2): increased mRNA expression | iPSC (gene-free iPSC reprogramming) ([5]; Panstra 25, SACK agent Xn): Yes | Estimated gene-free iPSC colony formation efficiency, ES, AP+ (iPSC state) ([5]; DFBS): 0.000% | Estimated gene-free iPSC colony formation efficiency, ES, AP− ([5]; DFBS): 0.000% | Estimated gene-free iPSC colony formation efficiency, Fl, AP+ ([5]; DFBS): 0.000% | Estimated gene-free iPSC colony formation efficiency, Fl, AP− ([5]; DFBS): 0.059% | Phenotype ES, AP+ (iPSC state) of individual cell clones following expansion, clones/total ([5]; DFBS): 0/22 | Phenotype ES, AP+ (iPSC state) of individual cell clones following expansion, percent ([5]; DFBS): 0% | Phenotype ES, AP− of individual cell clones following expansion, clones/total ([5]; DFBS): 0/22 | Phenotype ES, AP− of individual cell clones following expansion, percent ([5]; DFBS): 0% | Phenotype Fl, AP+ of individual cell clones following expansion, clones/total ([5]; DFBS): 0/22 | Phenotype Fl, AP+ of individual cell clones following expansion, percent ([5]; DFBS): 0% | Phenotype Fl, AP− of individual cell clones following expansion, clones/total ([5]; DFBS): 22/22 | Phenotype Fl, AP− of individual cell clones following expansion, percent ([5]; DFBS): 100% | Estimated gene-free iPSC colony formation efficiency, ES, AP+ (iPSC state) ([5]; KOSR): 0.016% | Estimated gene-free iPSC colony formation efficiency, ES, AP− ([5]; KOSR): 0.037% | Estimated gene-free iPSC colony formation efficiency, Fl, AP+ ([5]; KOSR): 0.000% | Estimated gene-free iPSC colony formation efficiency, Fl, AP− ([5]; KOSR): 0.000% | Phenotype ES, AP+ (iPSC state) of individual cell clones following expansion, clones/total ([5]; KOSR): 6/20 | Phenotype ES, AP+ (iPSC state) of individual cell clones following expansion, percent ([5]; KOSR): 30% | Phenotype ES, AP− of individual cell clones following expansion, clones/total ([5]; KOSR): 14/20 | Phenotype ES, AP− of individual cell clones following expansion, percent ([5]; KOSR): 70% | Phenotype Fl, AP+ of individual cell clones following expansion, clones/total ([5]; KOSR): 0/20 | Phenotype Fl, AP+ of individual cell clones following expansion, percent ([5]; KOSR): 0% | Phenotype Fl, AP− of individual cell clones following expansion, clones/total ([5]; KOSR): 0/20 | Phenotype Fl, AP− of individual cell clones following expansion, percent ([5]; KOSR): 0% | Estimated gene-free iPSC colony formation efficiency, ES, AP+ (iPSC state) ([5]; hiFBS): 0.008% | Estimated gene-free iPSC colony formation efficiency, ES, AP− ([5]; hiFBS): 0.027% | Estimated gene-free iPSC colony formation efficiency, Fl, AP+ ([5]; hiFBS): 0.003% | Estimated gene-free iPSC colony formation efficiency, Fl, AP− ([5]; hiFBS): 0.013% | Phenotype ES, AP+ (iPSC state) of individual cell clones following expansion, clones/total ([5]; hiFBS): 3/19 | Phenotype ES, AP+ (iPSC state) of individual cell clones following expansion, percent ([5]; hiFBS): 16% | Phenotype ES, AP− of individual cell clones following expansion, clones/total ([5]; hiFBS): 10/19 | Phenotype ES, AP− of individual cell clones following expansion, percent ([5]; hiFBS): 53% | Phenotype Fl, AP+ of individual cell clones following expansion, clones/total ([5]; hiFBS): 1/19 | Phenotype Fl, AP+ of individual cell clones following expansion, percent ([5]; hiFBS): 5% | Phenotype Fl, AP− of individual cell clones following expansion, clones/total ([5]; hiFBS): 5/19 | Phenotype Fl, AP− of individual cell clones following expansion, percent ([5]; hiFBS): 26%
